This note sets out measurements from patent publication US20220267276A1, “NLRP MODULATORS” (Novartis AG, priority 2018, published 2022).

SMILES strings stand for the structures. pIC50: −log10 of the molar value.

The subject of data set [1] is IL-1β production in PMA-differentiated THP-1 cells. Description: IL-1β production in PMA-differentiated THP-1 cells stimulated with gramicidin (hTHP-1 assay, 2% fetal bovine serum). Format: cell-based, human. On the procedure: THP-1 cells were purchased from the American Type Culture Collection and sub-cultured according to instructions from the supplier. Cells were cultured in complete RPMI 1640 (containing 10% heat inactivated FBS, penicillin (100 units/ml) and streptomycin (100 μg/ml)), and maintained in log phase prior to experimental setup. Prior to the experiment, compounds were dissolved in dimethyl sulfoxide (DMSO) to generate a 30 mM stock. The compound stock was first pre-diluted in DMSO to 3, 0.34, 0.042 and 0.0083 mM intermediate concentrations and subsequently spotted using Echo550 liquid handler into an empty 384-well assay plate to achieve desired final concentration (e.g. 100, 33, 11, 3,7, 1.2, 0.41, 0.14, 0.046, 0.015, 0.0051, 0.0017 μM). DMSO was backfilled in the plate to achieve a final DMSO assay concentration of 0.37%. The plate was then sealed and stored at room temperature until required. THP-1 cells were treated with PMA (Phorbol 12-myristate 13-acetate) (20 ng/ml) for 16-18 hours. On the day of the experiment the media was removed and adherent cells were detached with trypsin for 5 minutes. Cells were then harvested, washed with complete RPMI 1640, spun down, and resuspended in RPMI 1640 (containing 2% heat inactivated FBS, penicillin (100 units/ml) and streptomycin (100 μg/ml). The cells were plated in the 384-well assay plate containing the spotted compounds at a density of 50,000 cells/well (final assay volume 50 μl). Ceils were incubated with compounds for 1 hour and then stimulated with gramicidin (5 μM) (Enzo) for 2 hours. Plates were then centrifuged at 340 g for 5 min. Cell free supernatant (40 μL) was collected using a 96-channel PlateMaster (Gilson) and the production of IL-1β was evaluated by HTRF (cisbio). The plates were incubated for 18 h at 4° C. and read using the preset HTRF program (donor emission at 620 nm, acceptor emission at 668 nm) of the SpectraMax i3x spectrophotometer (Molecular Devices, software SoftMax 6). A vehicle only control and a dose titration of CRID3 (100-0.0017 μM) were run concurrently with each experiment. Data was normalized to vehicle-treated samples (equivalent to 0% inhibition) and CRID3 at 100 μM (equivalent to 100% inhibition).
Procedure 2: IL-1β Production in PMA-Differentiated THP-1 Cells Stimulated with Gramicidin
THP-1 cells were purchased from the American Type Culture Collection and sub-cultured according to instructions from the supplier. Prior to experiments, cells were cultured in complete RPMI 1640 (containing 10% heat inactivated FBS, penicillin (100 units/ml) and streptomycin (100 μg/ml)), and maintained in log phase prior to experimental setup. Prior to the experiment THP-1 were treated with PMA (Phorbol 12-myristate 13-acetate) (20 ng/mi) for 16-18 hours. Compounds were dissolved in dimethyl sulfoxide (DMSO) to generate a 30 mM stock. On the day of the experiment the media was removed and adherent cells were detached with trypsin for 5 minutes. Cells were then harvested, washed with complete RPMI 1640, spun down, resuspended in RPMI 1640 (containing 2% heat inactivated FBS, penicillin (100 units/ml) and streptomycin (100 μg/ml), The cells were plated in a 384-well plate at a density of 50,000 cells/well (final assay volume 50 μl). Compounds were first dissolved in assay medium to obtain a 5× top concentration of 500 μM. 10 step dilutions (1:3) were then undertaken in assay medium containing 1.67% DMSO. 5× compound solutions were added to the culture medium to achieve desired final concentration (e.g. 100, 33, 11, 3.7, 1.2, 0.41, 0.14, 0.046, 0.015, 0.0051, 0.0017 μM). Final DMSO concentration was at 0.37%. Cells were incubated with compounds for 1 hour and then stimulated with gramicidin (5 μM) (Enzo) for 2 hours. Plates were then centrifuged at 340 g for 5 min. Cell free supernatant (40 μL) was collected using a 96-channel PlateMaster (Gilson) and the production of IL-1β was evaluated by HTRF (cisbio). […]

A short description of data set [2]: Colon pharmacokinetics in mice. Format: in vivo. The note with it: colon to plasma concentration ratio at 8 h time point, 30 mg/kg oral gavage in 0.5% methyl-cellulose, Male C57BL/6 Mouse; for Kp at 8 h: read-out: Mouse TD Colon/Plasma @ 8. On the procedure: Assay 2: Colon Pharmacokinetics in Mice
The test compound was formulated in 0.5% methyl-cellulose in water and dosed via oral gavage at 30 mg/kg to Male C57BL/6 Mouse. At various time points (typically 15 min, 30 min, 1, 2, 4, 6 and 8 h) post dosing, blood samples were removed via cardiac […] puncture and intact colons were excised from the […]. Blood samples were centrifuged at 1500 x g for 15 min to collect plasma. At the terminal time point each individual animal is anaesthetized, abdominal cavity is opened and from 2 cm below the caecum a 4 cm sample of the colon is dissected, cut open on the longitudinal axis and the solid contents removed by flushing with 2 mL of physiological fluid. The colon was further washed by putting it in 5 mL of physiological saline and shaken for 1 minute. The colon was pet dry weighed and transferred in 2 mL tubes. Colon will be weighted and homogenized with water by tissue weight (g) to water volume (mL) at ratio 1:3 before analysis. The actual concentration is the detected value multiplied by the dilution factor. A colon to plasma ratio was determined as the ratio of the colon cone, to the plasma cone, in pg hr/g, at 8 h time point.

Where [3] appears, read: average IC50, hTHP-1 assay containing 2% fetal bovine serum, class symbols.
The mark [4] stands for this setting: Homo sapiens, THP-1, average IC50, hTHP-1 assay containing 2% fetal bovine serum, given as numeric bound.
[5] abbreviates: Homo sapiens, THP-1, average IC50, hTHP-1 assay containing 2% fetal bovine serum, class symbols.

As usually defined, the pIC50 is the negative decadic logarithm of the IC50, by convention in mol/L. A low value points to a high IC50. `CNS(=O)(=O)c1ccc(S(=O)(=O)NC(=O)Nc2c(C(C)C)cc(C#N)c(F)c2C(C)C)c(OC)c1` [Compound 118] had a pIC50 in data set [1] (setting [3]) of 6.00 to 6.70. In addition, the Kp at 8 h in data set [2] came to 5950.

`Cc1cc(C(=O)NCCc2ccc(S(=O)(=O)NC(=O)Nc3c(C(C)C)cc(C#N)cc3C(C)C)cc2)no1` [Compound 302] had a pIC50 in data set [1] (setting [4]) of less than 4.52.

Turning to `CC(C)c1c(F)c(C#N)cc(C2CCOCC2)c1NC(=O)NS(=O)(=O)c1sc(C(C)(C)O)nc1CO` [Compound 112], in data set [1] (setting [5]), the pIC50 was 5.30 to 6.00.

In the case of `CC(C)(O)c1nc(CO)c(S(=O)(=O)NC(=O)Nc2c3c(nc4c2CCC4)CCC3)s1` [Compound 111], the pIC50 in data set [1] (setting [5]) is 5.30 to 6.00.

Consider `CNS(=O)(=O)c1ccc(S(=O)(=O)NC(=O)Nc2c(C(C)C)cc(C#N)cc2C(C)C)c(C(=O)OC)c1` [Compound 115], for which the pIC50 in data set [1] (setting [5]) is 4.52 to 5.30.

`CC(C)(O)c1nc(CO)c(S(=O)(=O)NC(=O)Nc2c3c(c(C#N)c4c2CCC4)CCC3)s1` [Compound 122] gave a pIC50 in data set [1] (setting [5]) of 5.30 to 6.00. Also, in data set [2], the Kp at 8 h came out at 3530.

As to `CNS(=O)(=O)c1ccc(S(=O)(=O)NC(=O)Nc2c(C(C)C)cc(C#N)c(F)c2C(C)C)c(OC)c1` [Compound 120], in data set [1] (setting [3]), the pIC50 was 6.70 to 7.40.

In data set [1] (setting [5]), `CCC(C)c1cc(C#N)c(F)c(C(C)C)c1NC(=O)NS(=O)(=O)c1sc(C(C)(C)O)nc1CO` (stereo not shown) [Compound 113] gave a negative logarithm of the IC50 (pIC50) of 6.00 to 6.70. Further, the Kp at 8 h in data set [2] worked out at 4560.

`CC(C)c1cc(C#N)c(F)c(C(C)C)c1NC(=O)NS(=O)(=O)c1cc(C(C)(C)O)no1` [Compound 301] showed a pIC50 in data set [1] (setting [5]) of 6.00 to 6.70.

With `CC(C)c1cc(C#N)cc(C(C)C)c1NC(=O)NS(=O)(=O)c1sc(C(C)(C)O)nc1CO` [Compound 101], the pIC50 in data set [1] (setting [5]) is 6.00 to 6.70. Besides, in data set [2], the Kp at 8 h is 3000.

With `O=C(CCCC[C@@H]1SC[C@@H]2NC(=O)N[C@@H]21)NCCCn1cc(CCC(=O)Nc2cccc(S(=O)(=O)NC(=O)Nc3c4c(cc5c3CCC5)CCC4)c2)nn1` [Compound 324], in data set [1] (setting [4]), the pIC50 was less than 4.52.

Compound `CC(C)c1cc2c(c(C(C)C)c1NC(=O)NS(=O)(=O)c1sc(C(C)(C)O)nc1CO)COC2` [Compound 106] showed a pIC50 in data set [1] (setting [5]) of 6.00 to 6.70.

As to `COC(=O)c1sc2c(c1NC(=O)NS(=O)(=O)c1ncc(C(C)(C)O)s1)CCCC2` [Compound 304], the pIC50 in data set [1] (setting [5]) was 4.52 to 5.30.

`Cc1cc(C(=O)NCCc2ccc(S(=O)(=O)NC(=O)Nc3c4c(cc5c3CCC5)CCC4)cc2)no1` [Compound 303]: the pIC50 in data set [1] (setting [4]) is less than 4.52.

Consider `CNS(=O)(=O)c1ccc(S(=O)(=O)NC(=O)Nc2c(C(C)C)cncc2C(C)C)c(CO)c1` [Compound 105], for which the pIC50 in data set [1] (setting [5]) was 5.30 to 6.00.

Compound `CC(C)c1cc(C#N)c(F)c(C(C)C)c1NC(=O)NS(=O)(=O)c1sc(C(C)(C)O)nc1CCO` [Compound 102] showed a pIC50 in data set [1] (setting [5]) of 6.70 to 7.40. The Kp at 8 h in data set [2] came to 802.

For `CNS(=O)(=O)c1ccc(S(=O)(=O)NC(=O)Nc2c3c(nc4c2CCC4)CCC3)c(CO)c1` [Compound 103], in data set [1] (setting [5]), the negative logarithm of the IC50 (pIC50) was 6.00 to 6.70.

`CC(C)c1nc(-c2cccc(C(F)(F)F)c2)c(F)c(C(C)C)c1NC(=O)NS(=O)(=O)c1sc(C(C)(C)O)nc1CO[Si](C)(C)C(C)(C)C` [Compound 107]: the pIC50 in data set [1] (Homo sapiens, THP-1) was 5.30 to 6.00.

As for `CNS(=O)(=O)c1ccc(S(=O)(=O)NC(=O)Nc2c(C(C)C)cncc2C(C)C)cc1CO` [Compound 109], the pIC50 in data set [1] (setting [5]) was 5.30 to 6.00.

In data set [1] (setting [5]), `CC(C)c1cncc(C(C)C)c1NC(=O)NS(=O)(=O)c1sc(C(C)(C)O)nc1CO` [Compound 104] showed a pIC50 of 5.30 to 6.00.

In turn, `CNS(=O)(=O)c1ccc(S(=O)(=O)NC(=O)Nc2c3c(cc4c2CCC4)CCC3)c(O)c1` [Compound 124] had a pIC50 in data set [1] (setting [5]) of 4.52 to 5.30. The Kp at 8 h in data set [2] came out at 26.

`CNS(=O)(=O)c1ccc(S(=O)(=O)NC(=O)Nc2c3c(nc4c2CCC4C)CCC3)c(CO)c1` (stereo not shown) [Compound 203] showed a pIC50 in data set [1] (setting [5]) of 5.30 to 6.00.

In data set [1] (setting [5]), `CC(C)c1cc(C#N)cc(CCO)c1NC(=O)NS(=O)(=O)c1sc(C(C)(C)O)nc1CO` [Compound 114] gave a negative logarithm of the IC50 (pIC50) of 4.52 to 5.30.

Compound `CNS(=O)(=O)c1ccc(S(=O)(=O)NC(=O)Nc2c3c(nc4c2CCC4)CCC3)c(OC)c1` [Compound 108] had a pIC50 in data set [1] (setting [5]) of 5.30 to 6.00.

In data set [1] (setting [5]), `CC1CCc2c1nc1c(c2NC(=O)NS(=O)(=O)c2sc(C(C)(C)O)nc2CO)CCC1` (stereo not shown) [Compound 202] had a pIC50 of 6.00 to 6.70.

On to `CC(C)c1cc(C#N)c(F)c(C(C)C)c1NC(=O)NS(=O)(=O)c1sc(C(C)(C)O)nc1CO` [Compound 123], for which the pIC50 in data set [1] (setting [5]) is 6.00 to 6.70. Also, in data set [2], the “Mouse TD Colon/Plasma @ 8” value was 12,731.

Compound `CC(C)c1cc(C#N)cc(C2CC2)c1NC(=O)NS(=O)(=O)c1sc(C(C)(C)O)nc1CO` [Compound 121] gave a pIC50 in data set [1] (setting [5]) of 5.30 to 6.00.

`CNS(=O)(=O)c1ccc(S(=O)(=O)NC(=O)Nc2c(C(C)C)cc(C#N)c(F)c2C(C)C)c(O)c1` [Compound 117] gave a pIC50 in data set [1] (setting [5]) of 6.70 to 7.40.

Consider `CC(C)c1c(F)c(C#N)cc(C2CCOCC2)c1NC(=O)NS(=O)(=O)c1sc(C(C)(C)O)nc1CO` [Compound 204], for which the pIC50 in data set [1] (setting [4]) is less than 4.82.

On to `CNS(=O)(=O)c1ccc(S(=O)(=O)NC(=O)Nc2c(C(C)C)cc(C#N)cc2C(C)C)c(CO)c1` [Compound 116], for which, in data set [1] (setting [5]), the pIC50 is 6.00 to 6.70. The “Mouse TD Colon/Plasma @ 8” value in data set [2] is reported as 18,645.

With `CNS(=O)(=O)c1ccc(S(=O)(=O)NC(=O)Nc2c(C(C)C)cc(C#N)cc2C(C)C)c(O)c1` [Compound 119], in data set [1] (setting [5]), the pIC50 was 6.70 to 7.40.

Consider `CC(C)(O)c1nc(CO)c(S(=O)(=O)NC(=O)Nc2c3c(nc4c2CCC4(C)C)CCC3)s1` [Compound 201], for which, in data set [1] (setting [5]), the pIC50 is 6.00 to 6.70.
